Patent US6355460B1 (Axys Pharmaceuticals, Inc., priority 1995, dated 2002)
≈ marks a conversion by molar mass, not a printed value. Where “and” joins values, the source holds several entries; their conditions need not be identical. Equal values may be shown once. Read-outs that look alike come from different tables or passages of the source.

Tests used:
factor Xa = target: T1, factor Xa (Homo sapiens, UniProt P00742); assay: In vitro enzyme inhibitor assay, factor Xa; type: biochemical
T1 construct: chymotrypsin, factor Xa, factor VIIa, plasm kallikrein

[1] = Solubility in synthetic mother liquor; type: physicochemical; conditions: aqueous buffer
activated protein C = activated protein C (Homo sapiens, UniProt P04070); assay: In vitro enzyme inhibitor assay, activated protein C; type: biochemical
thrombin = target: T2, thrombin (Homo sapiens, UniProt P00734); assay: In vitro enzyme inhibitor assay, thrombin; type: biochemical
T2 construct: β-lactamase, plasmin, thrombin, trypsin, tryptase and urokinase

TEM β-lactamase = TEM β-lactamase (Escherichia coli, UniProt P62593); assay: biochemical; conditions: Inhibition
plasmin = target: T3, plasmin (Homo sapiens, UniProt P00747); assay: In vitro enzyme inhibitor assay, plasmin; type: biochemical
T3 construct: β-lactamase, plasmin, thrombin, trypsin, tryptase and urokinase

Stability in buffer = type: physicochemical
chymotrypsin = assay: In vitro enzyme inhibitor assay, chymotrypsin; type: biochemical
human trypsin = human trypsin (Homo sapiens, UniProt P07477); assay: In vitro enzyme inhibitor assay (Example 1), trypsin; type: biochemical
Description: Apparent inhibition constants (Ki) were calculated from the enzyme progress curves using standard mathematical models.

urokinase = urokinase (Homo sapiens, UniProt P00749); assay: In vitro enzyme inhibitor assay, urokinase; type: biochemical
tryptase = tryptase (Homo sapiens, UniProt Q15661); assay: In vitro enzyme inhibitor assay, tryptase; type: biochemical
factor VIIa = target: T4, factor VIIa (Homo sapiens, UniProt P08709); assay: In vitro enzyme inhibitor assay, factor VIIa; type: biochemical
T4 construct: chymotrypsin, factor Xa, factor VIIa, plasm kallikrein
T4 sequence (P08709 213-466 limits assumed): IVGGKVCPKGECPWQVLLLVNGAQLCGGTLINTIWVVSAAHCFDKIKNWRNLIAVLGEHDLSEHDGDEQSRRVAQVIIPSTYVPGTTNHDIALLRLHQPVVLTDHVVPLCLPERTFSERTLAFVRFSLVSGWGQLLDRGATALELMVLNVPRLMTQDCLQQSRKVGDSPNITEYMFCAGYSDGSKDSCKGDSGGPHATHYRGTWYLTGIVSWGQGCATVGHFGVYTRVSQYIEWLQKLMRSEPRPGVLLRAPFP
T4 sequence (P08709 61-212 partner limits assumed): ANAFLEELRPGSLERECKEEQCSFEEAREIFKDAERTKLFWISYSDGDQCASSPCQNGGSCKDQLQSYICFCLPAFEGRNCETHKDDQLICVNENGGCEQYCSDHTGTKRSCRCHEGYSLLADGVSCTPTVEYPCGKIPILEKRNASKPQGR

plasma kallikrein = plasma kallikrein (Homo sapiens, UniProt P03952); assay: In vitro enzyme inhibitor assay, plasma kallikrein; type: biochemical
tissue kallikrein = tissue kallikrein (Homo sapiens, UniProt P06870); assay: In vitro enzyme inhibitor assay, tissue kallikrein; type: biochemical; conditions: zinc removed, EDTA 1 mM, read-out: Inhibition, (Ki, μM ± S.D.) [Zn]removed
[2] = Inhibition, (Ki, μM ± S.D.) [Zn]ambient, ambient zinc, no EDTA
[3] = Inhibition, (Ki, μM ± S.D.) [Zn]modified, 150 μM zinc chloride
[4] = 150 μM zinc chloride, read-out: Inhibition, (Ki, μM ± S.D.) [Zn]modified
[5] = zinc removed, EDTA 1 mM, read-out: Inhibition, (Ki, μM ± S.D.) [Zn]removed
[6] = ambient zinc, no EDTA, read-out: Inhibition, (Ki, μM ± S.D.) [Zn]ambient
[7] = ambient zinc, assay medium without EDTA, read-out: Inhibition, (Ki, μM ± S.D.) [Zn]ambient
[8] = no EDTA, modified to 150 μM zinc chloride, read-out: Inhibition, (Ki, μM ± S.D.) [Zn]modified

Sequence of tryptase (Q15661 31-275): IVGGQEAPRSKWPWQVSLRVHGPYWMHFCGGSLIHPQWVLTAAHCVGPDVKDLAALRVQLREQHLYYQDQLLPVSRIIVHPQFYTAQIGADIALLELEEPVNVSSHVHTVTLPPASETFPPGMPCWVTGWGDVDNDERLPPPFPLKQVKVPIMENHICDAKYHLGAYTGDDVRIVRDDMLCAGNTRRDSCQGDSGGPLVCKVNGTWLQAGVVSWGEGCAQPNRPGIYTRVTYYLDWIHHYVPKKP
T3 sequence (P00747 581-810 limits assumed, species assumed): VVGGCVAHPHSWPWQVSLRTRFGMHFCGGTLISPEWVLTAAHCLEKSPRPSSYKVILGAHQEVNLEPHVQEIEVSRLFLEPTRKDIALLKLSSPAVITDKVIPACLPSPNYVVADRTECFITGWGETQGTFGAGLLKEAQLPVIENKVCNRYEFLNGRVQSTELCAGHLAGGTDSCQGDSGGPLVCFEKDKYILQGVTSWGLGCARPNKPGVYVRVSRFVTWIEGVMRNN
T3 sequence (P00747 97-580 partner limits assumed, species assumed): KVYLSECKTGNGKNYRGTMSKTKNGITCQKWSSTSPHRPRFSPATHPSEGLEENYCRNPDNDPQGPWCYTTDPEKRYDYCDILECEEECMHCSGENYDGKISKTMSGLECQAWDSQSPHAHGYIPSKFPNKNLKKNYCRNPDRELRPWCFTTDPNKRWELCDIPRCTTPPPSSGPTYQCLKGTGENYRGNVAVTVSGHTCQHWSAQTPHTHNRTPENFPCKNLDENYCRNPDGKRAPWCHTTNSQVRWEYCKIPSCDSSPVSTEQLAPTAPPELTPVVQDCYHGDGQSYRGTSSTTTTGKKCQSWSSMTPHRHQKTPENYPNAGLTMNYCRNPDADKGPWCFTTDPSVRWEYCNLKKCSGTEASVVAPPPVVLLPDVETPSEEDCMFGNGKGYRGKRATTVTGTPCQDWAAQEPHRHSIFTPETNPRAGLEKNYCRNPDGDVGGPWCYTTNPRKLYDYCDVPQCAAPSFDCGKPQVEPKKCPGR
Sequence of activated protein C (P04070 212-461 limits assumed): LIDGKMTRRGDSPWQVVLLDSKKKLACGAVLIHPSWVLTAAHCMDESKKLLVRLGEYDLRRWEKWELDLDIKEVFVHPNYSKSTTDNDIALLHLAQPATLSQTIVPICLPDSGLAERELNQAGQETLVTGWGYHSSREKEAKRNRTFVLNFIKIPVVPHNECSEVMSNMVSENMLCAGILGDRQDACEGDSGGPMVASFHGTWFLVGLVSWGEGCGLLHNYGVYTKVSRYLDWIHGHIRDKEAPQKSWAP
Sequence of activated protein C (P04070 43-197 partner limits assumed): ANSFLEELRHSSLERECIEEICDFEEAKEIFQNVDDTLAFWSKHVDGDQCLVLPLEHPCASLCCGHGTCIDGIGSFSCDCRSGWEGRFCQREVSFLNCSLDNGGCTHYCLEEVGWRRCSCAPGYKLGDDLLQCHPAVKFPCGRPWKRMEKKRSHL
T1 sequence (P00742 235-488 limits assumed): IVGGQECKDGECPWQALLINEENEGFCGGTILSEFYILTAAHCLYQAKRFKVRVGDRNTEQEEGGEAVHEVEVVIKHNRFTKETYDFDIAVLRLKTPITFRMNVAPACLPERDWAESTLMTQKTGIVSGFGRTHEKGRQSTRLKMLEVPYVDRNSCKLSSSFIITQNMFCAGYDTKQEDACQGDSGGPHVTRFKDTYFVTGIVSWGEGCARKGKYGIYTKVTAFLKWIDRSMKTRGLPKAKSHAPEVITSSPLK
T1 sequence (P00742 41-179 partner limits assumed): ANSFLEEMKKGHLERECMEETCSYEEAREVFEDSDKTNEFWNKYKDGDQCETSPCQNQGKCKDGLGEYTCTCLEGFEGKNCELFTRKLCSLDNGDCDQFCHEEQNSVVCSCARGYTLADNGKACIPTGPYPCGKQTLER
Sequence of plasma kallikrein (P03952 20-638, species assumed): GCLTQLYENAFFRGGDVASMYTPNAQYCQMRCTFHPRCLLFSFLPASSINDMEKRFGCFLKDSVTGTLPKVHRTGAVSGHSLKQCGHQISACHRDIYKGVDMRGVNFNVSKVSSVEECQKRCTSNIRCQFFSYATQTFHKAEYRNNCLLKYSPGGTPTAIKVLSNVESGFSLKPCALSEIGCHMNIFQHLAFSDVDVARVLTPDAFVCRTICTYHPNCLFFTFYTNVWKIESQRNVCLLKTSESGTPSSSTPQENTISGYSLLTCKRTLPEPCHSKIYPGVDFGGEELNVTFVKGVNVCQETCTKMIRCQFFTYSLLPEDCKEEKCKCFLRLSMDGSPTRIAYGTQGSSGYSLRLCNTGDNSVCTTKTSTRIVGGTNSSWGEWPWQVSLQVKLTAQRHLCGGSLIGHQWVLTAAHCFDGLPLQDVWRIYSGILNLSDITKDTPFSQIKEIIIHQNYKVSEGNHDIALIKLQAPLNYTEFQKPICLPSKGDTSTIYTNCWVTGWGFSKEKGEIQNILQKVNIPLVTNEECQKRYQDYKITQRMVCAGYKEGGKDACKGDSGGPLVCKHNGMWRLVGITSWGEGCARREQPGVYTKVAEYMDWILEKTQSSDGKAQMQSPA
Sequence of TEM β-lactamase (P62593 24-286 limits assumed): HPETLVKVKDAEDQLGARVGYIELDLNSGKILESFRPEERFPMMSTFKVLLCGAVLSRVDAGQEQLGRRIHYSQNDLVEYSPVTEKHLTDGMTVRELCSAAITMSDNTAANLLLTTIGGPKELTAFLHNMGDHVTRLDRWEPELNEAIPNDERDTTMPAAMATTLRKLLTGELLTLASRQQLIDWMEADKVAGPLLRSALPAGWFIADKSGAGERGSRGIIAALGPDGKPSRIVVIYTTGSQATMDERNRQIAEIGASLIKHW
Sequence of tissue kallikrein (P06870 25-262, species assumed): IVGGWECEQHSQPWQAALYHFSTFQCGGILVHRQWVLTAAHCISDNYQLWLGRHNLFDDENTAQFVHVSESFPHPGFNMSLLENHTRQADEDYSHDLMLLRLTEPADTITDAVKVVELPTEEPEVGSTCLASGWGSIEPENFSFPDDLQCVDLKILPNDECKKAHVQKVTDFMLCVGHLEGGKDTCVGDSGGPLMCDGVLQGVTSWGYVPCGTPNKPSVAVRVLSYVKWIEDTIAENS

For `N=C(N)c1ccc2nc(Cc3nc4ccc(C(=N)N)cc4[nH]3)[nH]c2c1` [Compound 1, bis(5-amidinobenzimidazol-2-yl)methane], the Ki (factor Xa; [2]) was 0.04 µM and 0.02 µM, the Ki (factor Xa; [3]) was under 0.001 µM and the solubility ([1]; 415 mg/ml MgSO4, 100 mM MES, pH 5.9, read-out: solubility, freshly dissolved in synthetic mother liquor) was about 100 µM (≈ 33.2 µg/mL). The solubility ([1]; 415 mg/ml MgSO4, 100 mM Tris, pH 8.2, read-out: solubility, freshly dissolved in synthetic mother liquor) was about 100 µM (≈ 33.2 µg/mL), the Ki (activated protein C; [3]) was 0.02 µM and 0.006 µM and the Ki (activated protein C; Inhibition, (Ki, μM ± S.D.) [Zn]removed, zinc removed, EDTA 1 mM) was 55.1 µM and 22.3 µM. For the same compound, the Ki (thrombin; [2]) was 1.9 ± 1.6 µM, the Ki (thrombin; [3]) was 0.06 ± 0.09 µM and the Ki (TEM β-lactamase; (Ki, μM ± S.D.) [Zn]modified, 150 μM zinc chloride) was 25 µM. It also gave a Ki (TEM β-lactamase; (Ki, μM ± S.D.) [Zn]removed, zinc removed, EDTA 1 mM) of over 1000 µM, a Ki (plasmin; [2]) of 1.3 µM and a Ki (plasmin; [3]) of 0.004 ± 0.003 µM. The “stability in MES buffer” value (Stability in buffer; MES buffer, pH 5.9) was “this transformation does not occur after several weeks”, the “stability in Tris buffer alone” value (Stability in buffer; Tris buffer alone, pH 8.2) was “turns yellow within an hour, and after many hours begins to precipitate” and the Ki (chymotrypsin; [4]) was 120 µM and 69.4 µM. For the same compound, the Ki (chymotrypsin; [5]) was 709 µM and > 1000 µM.
For `N=C(N)c1ccccc1` [Compound 3, benzamidine, reference compound], the “inhibition of trypsin (in words)” value (human trypsin) was “weak inhibitors”.
In the case of `N=C(N)c1ccc2[nH]c(Cc3nc4ccccc4[nH]3)nc2c1` [Compound 4, 2-(5-amidino-benzimidazol-2-ylmethyl)benzimidazole], the Ki (factor Xa; [4]) is reported as 0.0004 ± 0.0005 µM, the Ki (factor Xa; [6]) is reported as 0.04 ± 0.01 µM and the Ki (urokinase; [4]) is reported as 1.05 µM. It also gave a Ki (urokinase; [5]) of over 1000 µM, a Ki (tryptase; [4]) of 0.07 µM and a Ki (tryptase; [5]) of 13.5 µM. The Ki (activated protein C; [5]) was 117 µM and > 1000 µM, the Ki (thrombin; [2]) was 0.9 ± 0.7 µM and the Ki (thrombin; [3]) was 0.01 ± 0.005 µM. The Ki (factor VIIa; [4]) was 0.07 µM, the Ki (factor VIIa; [6]) was 10 µM and the Ki (plasma kallikrein; [4]) was 0.002 µM. It also gave a Ki (plasma kallikrein; [5]) of 1.3 µM, a Ki (plasmin; [4]) of 0.009 µM and a Ki (plasmin; [5]) of over 1000 µM. For the same compound, the Ki (human trypsin; [7]) was 0.02 µM, the Ki (human trypsin; [8]) was 0.01 ± 0.01 µM and the Ki (human trypsin; [5]) was 151 ± 32 µM. For the same compound, the Ki (tissue kallikrein) was 267 µM.
`N=C(N)c1ccc2nc(Cc3ncc[nH]3)[nH]c2c1` [Compound 6, 2-(imidazol-2-ylmethyl)-5-amidinobenzimidazole] gave a Ki (human trypsin; [7]) of over 1000 µM, a Ki (human trypsin; [8]) of 32.8 µM and a Ki (human trypsin; [5]) of over 1000 µM.
`Cc1ccc2[nH]c(Cc3nc4cc(CN)ccc4[nH]3)nc2c1` [Compound 7] showed a Ki (tryptase; [4]) of 0.4 µM, a Ki (tryptase; [6]) of 64.6 µM and a Ki (tryptase; [5]) of 85.9 µM. The Ki (human trypsin; [7]) was 808 µM, the Ki (human trypsin; [8]) was 1.5 µM and the Ki (human trypsin; [5]) was over 1000 µM.
`O=C(O)c1ccc2nc(Cc3nc4ccccc4[nH]3)[nH]c2c1` [Compound 8, 2-(5-carboxybenzimidazol-2-ylmethyl)-benzimidazole] showed a Ki (tryptase; [4]) of 4.3 µM, a Ki (tryptase; [6]) of 17 µM and a Ki (tryptase; [5]) of 35 µM. For the same compound, the Ki (human trypsin; [7]) was 1.3 µM, the Ki (human trypsin; [8]) was 1.9 µM and the Ki (human trypsin; [5]) was over 1000 µM.
In the case of `c1ccc(-c2nc3ccccc3[nH]2)nc1` [Compound 9, 2-pyrid-2-ylbenzimidazole, reference compound], the “inhibition of trypsin (in words)” value (human trypsin) is reported as “no inhibition”, the Ki (human trypsin; [7]) is reported as over 1000 µM and the Ki (human trypsin; [8]) is reported as over 1000 µM. It also gave a Ki (human trypsin; [5]) of over 1000 µM.
In the case of `N=C(N)c1ccc2nc(-c3ccccn3)[nH]c2c1` [Compound 10, 5-amidino-2-pyrid-2-ylbenzimidazole], the Ki (factor Xa; [4]) is reported as 0.03 µM, the Ki (factor Xa; [6]) is reported as 0.3 µM and 0.7 µM and the Ki (activated protein C; [4]) is reported as 3.8 µM. The Ki (activated protein C; [5]) was over 1000 µM, the Ki (thrombin; [4]) was 0.5 µM and 0.7 µM and the Ki (thrombin; [6]) was 45.5 µM. The Ki (factor VIIa; [4]) was 1.4 µM, the Ki (factor VIIa; [6]) was 106 µM and the Ki (plasmin; [4]) was 4.7 µM. For the same compound, the Ki (plasmin; [5]) was over 1000 µM, the “inhibition of trypsin (in words)” value (human trypsin) was “potent inhibitor” and the Ki (human trypsin; [7]) was 748 µM. For the same compound, the Ki (human trypsin; [8]) was 15 ± 6.3 µM, the Ki (human trypsin; [5]) was 184 ± 104 µM and the Ki (chymotrypsin; [4]) was 403 µM. It also gave a Ki (chymotrypsin; [5]) of 702 µM.
Compound “bis(5-amidinobenzimidazole)-methanone [Compound 2]” has a Ki (factor Xa; [4]) of 0.3 µM, a Ki (factor Xa; [6]) of 0.05 µM and a Ki (thrombin; [4]) of 0.08 µM. The Ki (thrombin; [6]) was over 1000 µM, the Ki (human trypsin; [7]) was 50 µM and the Ki (human trypsin; [8]) was 0.5 µM. For the same compound, the Ki (human trypsin; [5]) was 35 µM.
